Reference: patent US12492243B2, “DNA antibody constructs for use against Pseudomonas aeruginosa” (priority 2016, dated 2025)

Tested on: Pseudomonas aeruginosa strain 6077
Experiment: Lethal pneumonia challenge in BALB/c mice
Assay type: in vivo
Details: MEM 2.3 mg/kg alone or DMAb-DVSF3 100 μg, lethal PA 6077
Protocol: The unrelated dengue virus DMAb-DVSF3^20 was included as a control. A fourth group of animals received an intraperitoneal (IP) injection of purified protein IgG ABC123 (2 mg/kg) on day −1 before challenge. […] Animals were monitored for 6 days following intranasal challenge for survival as described in^16. Briefly, animals were anesthetized with ketamine and xylazine followed by intranasal administration of the bacterial inoculum contained in 0.05 ml. […] IL-1β, IL-6 and KC/GRO were quantified from the supernatant of lung homogenates using a multiplex kit (Meso Scale Diagnostics) according to the manufactures instructions. For DMAb and meropenem (MEM) combination experiments, MEM was administered subcutaneously 4 hours after infection.

SMILES: C[C@@H](O)[C@H]1C(=O)N2C(C(=O)O)=C(S[C@@H]3CN[C@H](C(=O)N(C)C)C3)[C@H](C)[C@H]12 [MEM, meropenem, reference compound]
- survival, DMAb and meropenem combination experiment: did not survive
